Non-standard residues stand in square brackets, D forms with d. Residues, ends and D or L forms follow the SMILES beside them.
How the values were obtained:
SARS-CoV-2 HR1 = SARS-CoV-2 HR1 (Severe acute respiratory syndrome coronavirus 2, UniProt P0DTC2); assay: biochemical; type: binding
SARS-CoV-1 HR1 = SARS-CoV-1 HR1 (Severe acute respiratory syndrome coronavirus, UniProt P59594); assay: biochemical; type: binding
[1] = test system: SARS-CoV-2 (nCoV/USA_WA1/2020)
SARS-CoV-2 = conditions: 1 h
[2] = target: SARS-CoV-1 spike heptad repeat 1 peptide, biotinylated (SARS-CoV-1); assay: BLI

## CC[C@@H](C)[C@@H](NC(=O)[C@H]1CCCN1C(=O)[C@H]1CCCN1C(=O)[C@H](NC(=O)[C@@H](Cc1c[nH]c2ccccc12)NC(=O)[C@@H](CCCCN)NC(=O)[C@@H](CC(C)C)NC(=O)[C@H](NC(=O)[C@@H](CCCCN)NC(=O)CNC(=O)[C@H](NC(=O)[C@@H](CCCCN)NC(=O)[C@@H](CCCCN)NC(=O)[C@@H](CC(C)C)NC(=O)[C@@H](CCCNC(=N)N)NC(=O)[C@@H](CCCCN)NC(=O)[C@@H](CCCNC(=N)N)NC(=O)[C@H](NC(=O)[C@@H](CCCCN)NC(=O)[C@@H](CCCCN)NC(=O)[C@@H](CCCNC(=N)N)NC(=O)[C@@H](CC(C)C)NC(=O)[C@@H](CCCNC(=N)N)NC(=O)[C@@H](CCCNC(=N)N)NC(=O)[C@@H](Cc1ccccc1)NC(=O)[C@@H](CCCNC(=N)N)NC(=O)CNC(=O)[C@H](N)C(C)C)[C@H](C)O)[C@H](C)CC)C(C)C)[C@H](C)CC)C(=O)N[C@@H](C(=O)NCC(=O)N[C@H](CO)C(=O)N[C@@H](C(=O)N1CCC[C@@H]1C(=O)N[C@H](CC(C)C)C(=O)NCC(=O)N[C@H](CO)C(=O)NCC(=O)O)[C@H](C)CC)C(C)C [D-Yongshi] (H-[dV]G[dR][dF][dR][dR][dL][dR][dK][dK][dT][dR][dK][dR][dL][dK][dK][dI]G[dK][dV][dL][dK][dW][dI][dP][dP][dI][dV]G[dS][dI][dP][dL]G[dS]G-OH; N-terminus and C-terminus assumed)
SARS-CoV-2 HR1
  Kd: > 100 µM
SARS-CoV-1 HR1
  Kd: > 100 µM
[1]
  SARS-CoV-2 inhibition by D-enantiomer (in words): only observed at concentrations that also induced substantial cell death
Vero hACE2 cells
  cytotoxicity compared with parent or control peptide (in words): greatly increased cytotoxicity

## CC[C@H](C)[C@H](NC(=O)[C@@H](NC(=O)[C@@H](N)CO)[C@@H](C)CC)C(=O)N[C@@H](CC(N)=O)C(=O)N[C@@H](Cc1ccccc1)C(=O)N[C@@H](CCC(=O)O)C(=O)N[C@@H](CCCCN)C(=O)N[C@@H](CC(C)C)C(=O)O [OVA, reference compound]
Vero A2T2 cell line
  Vero TD50 24 h: > 400 µM
HEK293T cells
  HEK293T TD50: > 50 µM
Vero hACE2 cells
  Vero TD50 48 h: > 50 µM

## CC[C@H](C)[C@H](NC(=O)[C@H](CCCCN)NC(=O)[C@H](CCCCN)NC(=O)[C@H](CC(C)C)NC(=O)[C@H](CCCNC(=N)N)NC(=O)[C@H](CCCCN)NC(=O)[C@H](CCCNC(=N)N)NC(=O)[C@@H](NC(=O)[C@H](CCCCN)NC(=O)[C@H](CCCCN)NC(=O)[C@H](CCCNC(=N)N)NC(=O)[C@H](CC(C)C)NC(=O)[C@H](CCCNC(=N)N)NC(=O)[C@H](CCCNC(=N)N)NC(=O)[C@H](Cc1ccccc1)NC(=O)[C@H](CCCNC(=N)N)NC(=O)CNC(=O)[C@@H](N)C(C)C)[C@@H](C)O)C(=O)NCC(=O)N[C@@H](CCCCN)C(=O)N[C@H](C(=O)N[C@@H](CC(C)C)C(=O)N[C@@H](CCCCN)C(=O)N[C@@H](Cc1c[nH]c2ccccc12)C(=O)N[C@H](C(=O)N1CCC[C@H]1C(=O)N1CCC[C@H]1C(=O)N[C@H](C(=O)N[C@H](C(=O)NCC(=O)N[C@@H](CO)C(=O)N[C@H](C(=O)N1CCC[C@H]1C(=O)N[C@@H](CC(C)C)C(=O)NCC(=O)N[C@@H](CS)C(=O)NCC(=O)O)[C@@H](C)CC)C(C)C)[C@@H](C)CC)[C@@H](C)CC)C(C)C [PMAP-36R] (H-VGRFRRLRKKTRKRLKKIGKVLKWIPPIVGSIPLGCG-OH)
Human red blood cells
  hemolytic activity (in words): considerable hemolytic activity
SARS-CoV-2
  SARS-CoV-2 inhibition at 50 µM: > 50%
HEK293T cells
  HEK293T TD50: 24.61 µM
Vero hACE2 cells
  Vero TD50 48 h: 23.47 µM

## SARS-CoV-2 spike heptad repeat 2 peptide
[2]
  Kd: 59.5 µM

— publication PMC10480232 (Scientific Reports, 2023)
